Results taken from patent publication US3984481A, “Bis-2-substituted-thiovinyl sulfones” (Chevron Research Company, priority 1976, dated 1976).
Where two headings read alike, the source gives them in different places.

Columns and labels:
[1] = test system: Elodea; assay: Algae control (aquatic weed control) test; assay type: in vivo; details: read-out: Percent Aquatic Weed Control
Protocol: (§1) Representative compounds of the invention were tested as algicides by the following method. The algae test species were Lemna, Elodea and Spirolina. An acetone solution of the test compound and a small amount of an alkylarylpolyoxyethylene glycol-containing surfactant was prepared. This solution was mixed with a nutrient broth in a quantity sufficient to give a concentration of 2 ppm. A 240 ml container was filled with this mixture. A sample of the test algae was added to each container and the container was then placed in an illuminated environment and maintained at a temperature of about 20°C for incubation. The containers were observed periodically for algae growth (as compared to an untreated check). The algicidal effectiveness of the test compound was determined based on a final observation of algae growth after 7 to 10 days. The results of the test on a 0 to 100 basis -- 0 indicating no effectiveness and 100 indicating complete effectiveness -- are reported in Table III.

[2] = test system: Lemna; assay: Algae control (aquatic weed control) test; assay type: in vivo; details: read-out: Percent Aquatic Weed Control
Protocol: as §1

[3] = test system: Spirolina; assay: Algae control (aquatic weed control) test; assay type: in vivo; details: read-out: Percent Aquatic Weed Control
Protocol: as §1

[4] = test system: Pythium ultimum; assay: Mycelial inhibition test
[5] = test system: Rhizoctonia solani; assay: Mycelial inhibition test
[6] = test system: Aspergillus niger; assay: Mycelial inhibition test
[7] = test system: Fusarium moniloforma; assay: Mycelial inhibition test
[8] = test system: Botrytis cinerea; assay: Mycelial inhibition test
[9] = Elodea, 2 ppm, 20°C, 7 to 10 days, 0 no effectiveness, 100 complete effectiveness
[10] = 2 ppm, 20°C, 7 to 10 days, 0 no effectiveness, 100 complete effectiveness
[11] = Spirolina, 2 ppm, 20°C, 7 to 10 days, 0 no effectiveness, 100 complete effectiveness
[12] = Pythium ultimum, 99% control, 25°C, 24 hours, 500 ppm acetone solution sprayed
[13] = Rhizoctonia solani, 99% control, 25°C, 24 hours, 500 ppm acetone solution sprayed
[14] = Aspergillus niger, 99% control, 25°C, 24 hours, 500 ppm acetone solution sprayed
[15] = Fusarium moniloforma, 99% control, 25°C, 24 hours, 500 ppm acetone solution sprayed
[16] = Botrytis cinerea, 99% control, 25°C, 24 hours, 500 ppm acetone solution sprayed

In the case of `O=[N+]([O-])c1ccc(SC=CS(=O)(=O)C=CSc2ccc([N+](=O)[O-])cc2)cc1` [Compound 6], the inhibition at 2 ppm [1] is reported as 78%, the inhibition at 2 ppm [2] is reported as 99% and the inhibition at 2 ppm [3] is reported as 90%. The “Mycelia Inhibition, micrograms/cm^2 for 99% control” value [4] was 0.73 micrograms/cm^2, the “Mycelia Inhibition, micrograms/cm^2 for 99% control” value [5] was 0.50 micrograms/cm^2 and the “Mycelia Inhibition, micrograms/cm^2 for 99% control” value [6] was 0.34 micrograms/cm^2. The “Mycelia Inhibition, micrograms/cm^2 for 99% control” value [7] was over 1.7 micrograms/cm^2 and the “Mycelia Inhibition, micrograms/cm^2 for 99% control” value [8] was 0.7 micrograms/cm^2.

With `O=S(=O)(C=CSc1cc(Cl)ccc1Cl)C=CSc1cc(Cl)ccc1Cl` [Compound 4] the inhibition at 2 ppm [1, 9] was 70%, the inhibition at 2 ppm [2, 10] was 39% and the inhibition at 2 ppm [3, 11] was 80%. The “Mycelia Inhibition, micrograms/cm^2 for 99% control” value [4, 12] was over 1.7 micrograms/cm^2, the “Mycelia Inhibition, micrograms/cm^2 for 99% control” value [5, 13] was 1.2 micrograms/cm^2 and the “Mycelia Inhibition, micrograms/cm^2 for 99% control” value [6, 14] was over 1.7 micrograms/cm^2. The “Mycelia Inhibition, micrograms/cm^2 for 99% control” value [7, 15] was over 1.7 micrograms/cm^2 and the “Mycelia Inhibition, micrograms/cm^2 for 99% control” value [8, 16] was 0.70 micrograms/cm^2.

`O=S(=O)(C=CSc1ccc(Cl)cc1)C=CSc1ccc(Cl)cc1` [Compound 1] was tested, and the inhibition at 2 ppm [1, 9] was 97%, the inhibition at 2 ppm [2, 10] was 68% and the “Mycelia Inhibition, micrograms/cm^2 for 99% control” value [4, 12] was 0.22 micrograms/cm^2. The “Mycelia Inhibition, micrograms/cm^2 for 99% control” value [5, 13] was 0.9 micrograms/cm^2, the “Mycelia Inhibition, micrograms/cm^2 for 99% control” value [6, 14] was 0.86 micrograms/cm^2 and the “Mycelia Inhibition, micrograms/cm^2 for 99% control” value [7, 15] was over 1.7 micrograms/cm^2.

Compound `O=S(=O)(C=CSc1ccc(Br)cc1)C=CSc1ccc(Br)cc1` [Compound 3, bis-2-(4-bromophenylthio)vinyl sulfone] has an inhibition at 2 ppm [1, 9] of 94%, an inhibition at 2 ppm [2, 10] of 94% and an inhibition at 2 ppm [3, 11] of 40%. For the same compound, the “Mycelia Inhibition, micrograms/cm^2 for 99% control” value [4, 12] was over 1.7 micrograms/cm^2, the “Mycelia Inhibition, micrograms/cm^2 for 99% control” value [5, 13] was 1.4 micrograms/cm^2 and the “Mycelia Inhibition, micrograms/cm^2 for 99% control” value [6, 14] was 0.73 micrograms/cm^2. For the same compound, the “Mycelia Inhibition, micrograms/cm^2 for 99% control” value [7, 15] was over 1.7 micrograms/cm^2 and the “Mycelia Inhibition, micrograms/cm^2 for 99% control” value [8, 16] was 1.4 micrograms/cm^2.

`O=S(=O)(C=CSc1ccc(F)cc1)C=CSc1ccc(F)cc1` [Compound 5] gave an inhibition at 2 ppm [1, 9] of 70%, an inhibition at 2 ppm [2, 10] of 30% and an inhibition at 2 ppm [3, 11] of 80%. The “Mycelia Inhibition, micrograms/cm^2 for 99% control” value [4, 12] was over 1.7 micrograms/cm^2, the “Mycelia Inhibition, micrograms/cm^2 for 99% control” value [5, 13] was over 1.7 micrograms/cm^2 and the “Mycelia Inhibition, micrograms/cm^2 for 99% control” value [6, 14] was over 1.7 micrograms/cm^2. For the same compound, the “Mycelia Inhibition, micrograms/cm^2 for 99% control” value [7, 15] was over 1.7 micrograms/cm^2 and the “Mycelia Inhibition, micrograms/cm^2 for 99% control” value [8, 16] was over 1.7 micrograms/cm^2.

`O=S(=O)(C=CSc1ccccc1)C=CSc1ccccc1` [Compound 8] was tested, and the inhibition at 2 ppm [1, 9] was 39%, the inhibition at 2 ppm [2, 10] was 0% and the inhibition at 2 ppm [3, 11] was 30%. For the same compound, the “Mycelia Inhibition, micrograms/cm^2 for 99% control” value [4, 12] was over 1.7 micrograms/cm^2, the “Mycelia Inhibition, micrograms/cm^2 for 99% control” value [5, 13] was 0.88 micrograms/cm^2 and the “Mycelia Inhibition, micrograms/cm^2 for 99% control” value [6, 14] was 0.50 micrograms/cm^2. The “Mycelia Inhibition, micrograms/cm^2 for 99% control” value [7, 15] was over 1.7 micrograms/cm^2 and the “Mycelia Inhibition, micrograms/cm^2 for 99% control” value [8, 16] was 1.5 micrograms/cm^2.

Work on `O=S(=O)(C=CSc1cccc(Cl)c1)C=CSc1cccc(Cl)c1` [Compound 2] yielded an inhibition at 2 ppm [1, 9] of 94%, an inhibition at 2 ppm [2, 10] of 100% and an inhibition at 2 ppm [3, 11] of 0%. The “Mycelia Inhibition, micrograms/cm^2 for 99% control” value [4, 12] was over 1.7 micrograms/cm^2, the “Mycelia Inhibition, micrograms/cm^2 for 99% control” value [5, 13] was 1.5 micrograms/cm^2 and the “Mycelia Inhibition, micrograms/cm^2 for 99% control” value [6, 14] was 1.1 micrograms/cm^2. The “Mycelia Inhibition, micrograms/cm^2 for 99% control” value [7, 15] was over 1.7 micrograms/cm^2 and the “Mycelia Inhibition, micrograms/cm^2 for 99% control” value [8, 16] was 1.2 micrograms/cm^2.

In the case of `O=S(=O)(CCSc1ccc(Cl)cc1)CCSc1ccc(Cl)cc1` [Compound 10, bis-2-(4-chlorophenylthio)ethyl sulfone, reference compound], the inhibition at 2 ppm [1, 9] is reported as 0%, the inhibition at 2 ppm [2, 10] is reported as 0% and the inhibition at 2 ppm [3, 11] is reported as 0%. For the same compound, the “Mycelia Inhibition, micrograms/cm^2 for 99% control” value [4, 12] was over 1.7 micrograms/cm^2, the “Mycelia Inhibition, micrograms/cm^2 for 99% control” value [5, 13] was over 1.7 micrograms/cm^2 and the “Mycelia Inhibition, micrograms/cm^2 for 99% control” value [6, 14] was over 1.7 micrograms/cm^2. The “Mycelia Inhibition, micrograms/cm^2 for 99% control” value [7, 15] was over 1.7 micrograms/cm^2 and the “Mycelia Inhibition, micrograms/cm^2 for 99% control” value [8, 16] was over 1.7 micrograms/cm^2.

With `O=S(=O)(C=CSc1ccc(Cl)c(Cl)c1)C=CSc1ccc(Cl)c(Cl)c1` [Compound 7] the inhibition at 2 ppm [1, 9] was 90%, the inhibition at 2 ppm [2, 10] was 70% and the inhibition at 2 ppm [3, 11] was 95%. The “Mycelia Inhibition, micrograms/cm^2 for 99% control” value [4, 12] was 0.78 micrograms/cm^2, the “Mycelia Inhibition, micrograms/cm^2 for 99% control” value [5, 13] was 0.97 micrograms/cm^2 and the “Mycelia Inhibition, micrograms/cm^2 for 99% control” value [6, 14] was 1.1 micrograms/cm^2. The “Mycelia Inhibition, micrograms/cm^2 for 99% control” value [7, 15] was 1.0 micrograms/cm^2 and the “Mycelia Inhibition, micrograms/cm^2 for 99% control” value [8, 16] was 0.70 micrograms/cm^2.
